Measured values published in patent publication US10435361B2, “Kinase inhibitors” (Topivert Pharma Limited, priority 2013, dated 2019).

Each compound was assayed on PBMCs (assay: LPS-induced TNFα/IL-8 release in PBMC cells). Details: Homo sapiens, assay (b), read-out: IC50 Values for Inhibition of Cytokine Release PBMCs IL-8.
Assay type: cell-based
Protocol: Peripheral blood mononuclear cells (PBMCs) from healthy subjects are separated from whole blood using a density gradient (Lymphoprep, Axis-Shield Healthcare). The PBMCs are seeded in 96 well plates and treated with compounds at the desired concentration for 2 hours before addition of 1 ng/mL LPS (Escherichia Coli 0111:B4 from Sigma Aldrich) for 24 hours under normal tissue culture conditions (37° C., 5% CO2). The supernatant is harvested for determination of IL-8 and TNFα concentrations by sandwich ELISA (Duo-set, R&D systems) and read on the fluorescence microplate reader (Varioskan® Flash, ThermoFisher Scientific).

Compound	IC50 [nM]
COc1cc(Nc2cc(Oc3ccc(NC(=O)Nc4cc(C(C)(C)C)cc(NS(C)(=O)=O)c4OC)c4ccccc34)ccn2)cc(C(=O)NCCN2CCCC2)c1 [83(d), 3-((4-((4-(3-(5-(tert-butyl)-2-methoxy-3-(methylsulfonamido)phenyl)ureido)naphthalen-1-yl)oxy)pyridin-2-yl)amino)-5-methoxy-N-(2-(pyrrolidin-1-yl)ethyl)benzamide]	12.1
COc1cc(Nc2cc(Oc3ccc(NC(=O)Nc4cc(C(C)(C)C)cc(NS(C)(=O)=O)c4OC)c4ccccc34)ccn2)cc(C(=O)NCCN2CCCCC2)c1 [83(e), 3-((4-((4-(3-(5-(tert-butyl)-2-methoxy-3-(methylsulfonamido)phenyl)ureido)naphthalen-1-yl)oxy)pyridin-2-yl)amino)-5-methoxy-N-(2-(piperidin-1-yl)ethyl)benzamide]	8
COc1c(NC(=O)Nc2ccc(Oc3ccnc(Nc4ccccc4)c3)c3ccccc23)cc(C(C)(C)C)cc1NS(=O)(=O)N1CCOCC1 [83(f), N-(5-(tert-butyl)-2-methoxy-3-(3-(4-((2-(phenylamino)pyridin-4-yl)oxy)naphthalen-1-yl)ureido)phenyl)morpholine-4-sulfonamide]	13.1
COCCOCCOCCOc1cc(Nc2cc(Oc3ccc(NC(=O)Nc4cc(C(C)(C)C)cc(C(=O)NCCN)c4OC)c4ccccc34)ccn2)cc(OC)c1 [83(g), N-(2-aminoethyl)-5-(tert-butyl)-2-methoxy-3-(3-(4-((2-((3-methoxy-5-(2-(2-(2-methoxy-ethoxy)ethoxy)ethoxy)phenyl)amino)pyridin-4-yl)oxy)naphthalen-1-yl)ureido)benzamide]	7.3
COc1c(NC(=O)Nc2ccc(Oc3ccnc(Nc4ccccc4)c3)c3ccccc23)cc(C(C)(C)C)cc1C(=O)NC1CCOCC1 [84(a), 3-[[4-[(2-Anilino-4-pyridyl)oxy]-1-naphthyl]carbamoylamino]-5-tert-butyl-2-methoxy-N-tetrahydropyran-4-yl-benzamide]	12.4
COc1c(NC(=O)Nc2ccc(Oc3ccnc(Nc4ccccc4)c3)c3ccccc23)cc(C(C)(C)C)cc1C(=O)NC1CCN(C)CC1 [84(b), 3-[[4-[(2-Anilino-4-pyridyl)oxy]-1-naphthyl]carbamoylamino]-5-tert-butyl-2-methoxy-N-(1-methyl-4-piperidyl)benzamide]	9.1
COc1c(NC(=O)Nc2ccc(Oc3ccnc(Nc4ccccc4)c3)c3ccccc23)cc(C(C)(C)C)cc1C(=O)N[C@@H]1CCOC1 [84(c), 3-[[4-[(2-Anilino-4-pyridyl)oxy]-1-naphthyl]carbamoylamino]-5-tert-butyl-2-methoxy-N-[(3R)-tetrahydrofuran-3-yl]benzamide]	21.8
COc1cc(Nc2cc(Oc3ccc(NC(=O)Nc4cc(C(C)(C)C)cc(NS(C)(=O)=O)c4OC)c4ccccc34)ccn2)cc(OCCOCCOCCO)c1 [84(e), 1-[5-tert-Butyl-3-(methanesulfonamido)-2-methoxy-phenyl]-3-[4-[[2-[3-[2-[2-(2-hydroxyethoxy)ethoxy]ethoxy]-5-methoxy-anilino]-4-pyridyl]oxy]-1-naphthyl]urea]	1.3
COc1cc(CO)cc(Nc2cc(Oc3ccc(NC(=O)Nc4cc(C(C)(C)C)cc(NS(C)(=O)=O)c4OC)c4ccccc34)ccn2)c1 [84(f), 1-[5-tert-Butyl-3-(methanesulfonamido)-2-methoxyphenyl]-3-[4-[[2-[3-(hydroxymethyl)-5-methoxyanilino]-4-pyridyl]oxy]-naphthyl]urea]	13.5
C#Cc1cc(Nc2cc(Oc3ccc(NC(=O)Nc4cc(C(C)(C)C)cc(NS(C)(=O)=O)c4OC)c4ccccc34)ccn2)cc(C(=O)NCCN2CCN(C)CC2)c1 [85(c), 3-[[4-[[4-[[5-tert-Butyl-3-(methanesulfonamido)-2-methoxyphenyl]-carbamoylaminol]-1-naphthyl]oxy]-2-pyridyl]amino]-5-ethynyl-N-[2-(4-methylpiperazin-1-yl)ethyl]benzamide]	4.6
COc1cc(Nc2nccc(Oc3ccc(NC(=O)Nc4cc(C(C)(C)C)cc(NS(C)(=O)=O)c4OC)c4ccccc34)n2)cc(C(=O)NCCN2CCN(C)CC2)c1 [85(e), 3-[[4-[[4-[[5-tert-Butyl-3-(methanesulfonamido)-2-methoxyphenyl]-carbamoylamino]-1-naphthyl]oxy]pyrimidin-2-yl]amino]-5-methoxy-N-[2-(4-methylpiperazin-1-yl)ethyl]benzamide]	1.7
COc1cc(Nc2nccc(Oc3ccc(NC(=O)Nc4cc(C(C)(C)C)cc(NS(C)(=O)=O)c4OC)c4ccccc34)n2)cc(C(=O)NCCCN2CCOCC2)c1 [85(f), 3-[[4-[[4-[[5-tert-Butyl-3-(methanesulfonamido)-2-methoxyphenyl]-carbamoylamino]-1-naphthyl]oxy]pyrimidin-2-yl]amino]-5-methoxy-N-(3-morpholinopropyl)-benzamide]	0.7
C#Cc1cc(Nc2nccc(Oc3ccc(NC(=O)Nc4cc(C(C)(C)C)cc(C(N)=O)c4OC)c4ccccc34)n2)cc(C(=O)NCCN2CCOCC2)c1 [85(g), 5-tert-Butyl-3-[[4-[2-[3-ethynyl-5-(2-morpholinoethylcarbamoyl)anilino]-pyrimidin-4-yl]oxy-1-naphthyl]carbamoylamino]-2-methoxy-benzamide]	1
COc1cc(Nc2cc(Oc3ccc(NC(=O)Nc4cc(C(C)(C)C)cc(NS(C)(=O)=O)c4OC)c4ccccc34)ccn2)cc(C(=O)NCCN2CCSCC2)c1 [85(i), 3-[[4-[[4-[[5-tert-Butyl-3-(methanesulfonamido)-2-methoxyphenyl]-carbamoylamino]-1-naphthyl]oxy]-2-pyridyl]amino]-5-methoxy-N-(2-thiomorpholinoethyl)-benzamide]	1.5
COc1cc(Nc2cc(Oc3ccc(NC(=O)Nc4cc(C(C)(C)C)cc(NS(C)(=O)=O)c4OC)c4ccccc34)ccn2)cc(C(=O)NCCN2CC[S+]([O-])CC2)c1 [85(j), 3-[[4-[[4-[[5-tert-Butyl-3-(methanesulfonamido)-2-methoxyphenyl]-carbamoylamino]-1-naphthyl]oxy]-2-pyridyl]amino]-5-methoxy-N-[2-(1-oxo-1,4-thiazinan-4-yl)ethyl]benzamide]	2.1
COc1cc(Nc2cc(Oc3ccc(NC(=O)Nc4cc(C(C)(C)C)cc(NS(C)(=O)=O)c4OC)c4ccccc34)ccn2)cc(C(=O)NCCN2CCOCC2(C)C)c1 [85(l), 3-[[4-[[4-[[5-tert-Butyl-3-(methanesulfonamido)-2-methoxyphenyl]-carbamoylamino]-1-naphthyl]oxy]-2-pyridyl]amino]-N-[2-(3,3-dimethylmorpholin-4-yl)ethyl]-5-methoxybenzamide]	2.8
COc1cc(Nc2cc(Oc3ccc(NC(=O)Nc4cc(C(C)(C)C)cc(NS(C)(=O)=O)c4OC)c4ccccc34)ccn2)cc(C(=O)NCCN2CCCN(C)CC2)c1 [85(p), 3-[[4-[[4-[[5-tert-Butyl-3-(methanesulfonamido)-2-methoxyphenyl]-carbamoylamino]-1-naphthyl]oxy]-2-pyridyl]amino]-5-methoxy-N-[2-(4-methyl-1,4-diazepan-1-yl)ethyl]benzamide]	7.1
COc1cc(Nc2cc(Oc3ccc(NC(=O)Nc4cc(C(C)(C)C)cc(NS(C)(=O)=O)c4OC)c4ccccc34)ccn2)cc(C(=O)NCCN2CCNCC2)c1 [85(q), 3-[[4-[[4-[[5-tert-Butyl-3-(methanesulfonamido)-2-methoxyphenyl]-carbamoylamino]-1-naphthyl]oxy]-2-pyridyl]amino]-5-methoxy-N-(2-piperazin-1-ylethyl)benzamide]	6.1
COc1cc(Nc2cc(Oc3ccc(NC(=O)Nc4cc(C(C)(C)C)cc(NS(C)(=O)=O)c4OC)c4ccccc34)ccn2)cc(C(=O)NCCOCCOCCO)c1 [85(r), 3-[[4-[[4-[[5-tert-Butyl-3-(methanesulfonamido)-2-methoxyphenyl]-carbamoylamino]-1-naphthyl]oxy]-2-pyridyl]amino]-N-[2-[2-(2-hydroxyethoxy)ethoxy]-ethyl]-5-methoxy-benzamide]	0.6
COCCOCCOCCOCCNC(=O)c1cc(Nc2cc(Oc3ccc(NC(=O)Nc4cc(C(C)(C)C)cc(NS(C)(=O)=O)c4OC)c4ccccc34)ccn2)cc(OC)c1 [85(v), 3-[[4-[[4-[[5-tert-Butyl-3-(methanesulfonamido)-2-methoxyphenyl]-carbamoylamino]-1-naphthyl]oxy]-2-pyridyl]amino]-5-methoxy-N-[2-[2-[2-(2-methoxyethoxy)ethoxy]ethoxy]-ethyl]benzamide]	0.4
COc1cc(Nc2cc(Oc3ccc(NC(=O)Nc4cc(C(C)(C)C)cc(NS(C)(=O)=O)c4OC)c4ccccc34)ccn2)cc(C(=O)NCCN2CCC(O)CC2)c1 [85(w), 3-[[4-[[4-[[5-tert-Butyl-3-(methanesulfonamido)-2-methoxyphenyl]-carbamoylamino]-1-naphthyl]oxy]-2-pyridyl]amino]-N-[2-(4-hydroxy-1-piperidyl)ethyl]-5-methoxybenzamide]	2.9
COCCOCCOCC[S+]([O-])c1cc(Nc2cc(Oc3ccc(NC(=O)Nc4cc(C(C)(C)C)cc(NS(C)(=O)=O)c4OC)c4ccccc34)ccn2)cc(OC)c1 (centres unmarked) [85(x), 1-[5-tert-Butyl-3-(methanesulfonamido)-2-methoxyphenyl]-3-[4-[2-[3-methoxy-5-[2-[2-(2-methoxyethoxy)ethoxy]ethylsulfinyl]anilino]pyridin-4-yl]oxy-1-naphthyl]urea]	0.9
COCCOCCOCCNC(=O)c1cc(Nc2nccc(Oc3ccc(NC(=O)Nc4cc(C(C)(C)C)cc(NS(C)(=O)=O)c4OC)c4ccccc34)n2)cc(OC)c1 [Example 7, 3-((4-((4-(3-(5-(tert-Butyl)-2-methoxy-3-(methylsulfonamido)phenyl)ureido)naphthalen-1-yl)oxy)pyrimidin-2-yl)amino)-5-methoxy-N-(2-(2-(2-methoxyethoxy)ethoxy)ethyl)-benzamide]	1.1
